Converted amounts (≈) assume the structure as drawn. Where a name gives a salt, the structure may show the parent alone.
Experiments:
[1] = system: isolated guinea pig atria; assay: Antiarrhythmic action on functional refractory period; format: cell-based; conditions: method of Zetler et al; for EC50: Cavia porcellus
Description: 1. Antiarrhythmic action on functional refractory period
The test was performed essentially by the method described by G. Zetler et al in "Naunyn-Schmiedebergs Archiv fur Pharmakologie", vol. 271, 335-345 (1971), using isolated guinea pig atria.

guinea pig [2] = assay: Surface anaesthetic action; format: in vivo; conditions: relative to procaine = 1; guinea pig (male, about 400 g); method of Chance et al
Description: 3. Surface anaesthetic action
The test was performed essentially by the method described by M.R.A. Chance et al in "Journal of Pharmacology and Experimental Therapeutics", vol. 82, 203-210 (1944), using guinea pig (male, about 400 g).

guinea pig [3] = assay: Infiltration anaesthetic action; format: in vivo; conditions: relative to procaine = 1; guinea pig (male, about 400 g); method of Bulbring et al
Description: 2. Infiltration anaesthetic action
The test was performed essentially by the method described by E. Bulbring et al in "Journal of Pharmacology and Experimental Therapeutics", vol. 85, 78-84 (1945), using guinea pig (male, about 400 g).

Compound	EC50 [1] [µg/mL]	Efficiency Rate (procaine = 1), surface anaesthetic action (guinea pig [2])	Efficiency Rate (procaine = 1), infiltration anaesthetic action (guinea pig [3])	EC50 (antiarrhythmic action on functional refractory period) [1]
COCCOc1ccccc1OCC(O)CN1C(C)(C)CCCC1(C)C (centres unmarked) [A]	24 (≈ 65.7 µM)			
CC1(C)CCCC(C)(C)N1CC(O)COc1ccccc1OCC1CCCO1 (centres unmarked) [B]	17 (≈ 43.4 µM)	26.7		
CC1(C)CCC(C)(C)N1CC(O)COc1ccccc1OCc1ccco1 (centres unmarked) [C]	13 (≈ 34.8 µM)	30.0		
CSCCOc1ccccc1OCC(O)CN1C(C)(C)CCCC1(C)C (centres unmarked) [D]	15 (≈ 39.3 µM)	27.2		
CC1(C)CCCC(C)(C)N1CC(O)COc1ccccc1Cc1ccccn1 (centres unmarked) [E]	22 (≈ 57.5 µM)			
CC1(C)CCCC(C)(C)N1CC(O)COc1ccccc1Oc1ccccn1 (centres unmarked) [F]	12 (≈ 31.2 µM)			
CC1CCCC(C)N1CC(O)COc1ccccc1OCc1cccs1 (centres unmarked) [G]	18 (≈ 47.9 µM)	23.6		
CC1(C)CCCC(C)(C)N1CC(O)COc1ccccc1OCc1ccco1 (centres unmarked) [H]			51.7	
CC1CCCC(C)N1CC(O)COc1ccccc1Cc1cccs1 (centres unmarked) [I]		27.1	98.7	
CC1(C)CCCC(C)(C)N1CC(O)COc1ccccc1Cc1cccs1 (centres unmarked) [J]			35.6	
CC1CCCCN1CC(O)COc1ccccc1Cc1cccs1 (centres unmarked) [K]			167.5	
CC1CCCCN1CC(O)COc1ccc(Cc2cccs2)cc1 (centres unmarked) [L]		23.9		
Cc1ccccc1OCC(O)CN1C(C)(C)CCC1(C)C (centres unmarked) [Lotucaine, 1-(2,2,5,5-tetramethylpyrrolidin-1-yl)-3-(o-tolyloxy)-2-propanolhydrochloride, reference compound]		11.1	11.3	no effect
